Experimental data: patent publication US20230201214A1, “LPXC INHIBITOR, FORMULATIONS, AND USES THEREOF” (priority 2020, published 2023)
≈ marks a conversion by molar mass, not a printed value. Values belong to the compound of their own block, whether it stands above or below them.

Tests used:
[1] = Oral solution formulation excipient screening (solubility estimated by HPLC); format: physicochemical
From the text: The solubility of Compound A was estimated by HPLC in multiple potential excipients for a solution formulation (Table 4).

[2] = tested on: N. cyriacigeorgica complex NEQAS 3295; experiment: Bacterial susceptibility testing (MIC, broth microdilution); format: cell-based; conditions: Nocardia cyriacigeorgica
Protocol: (§1) Minimal inhibitory concentrations (MIC) against a variety of gram-negative and gram-positive bacterial strains were determined by the broth microdilution method in accordance with the Clinical and Laboratory Standards Institute (CLSI) guidelines. In brief, organism suspensions were adjusted to a 0.5 McFarland standard to yield a final inoculum between 3×10^5 and 7×10^5 colony-forming units (CFU)/mL. Drug dilutions and inocula were made in sterile, cation adjusted Mueller-Hinton Broth (Beckton Dickinson). An inoculum volume of 100 μL was added to wells containing 100 μL. of broth with 2-fold serial dilutions of drug. All inoculated microdilution trays were incubated in ambient air at 35° C. for 18-24 h. Following incubation, the lowest concentration of the drug that prevented visible growth (OD600 nm<0.05) was recorded as the MIC. Performance of the assay was monitored by the use of laboratory quality-control strains and levofloxacin, a compound with a defined MIC spectrum, in accordance with CLSI guidelines.

[3] = tested on: gram-negative and gram-positive bacterial strains; experiment: Bacterial susceptibility testing, whole panel; format: cell-based
Protocol: as §1

SMILES: N#CC1CN(C[C@@H](Cc2ncnc(O)c2O)c2ccc(C#Cc3ccc(CN4CCOCC4)cc3)cc2)C1 [Compound A, (S)-1-(3-(5,6-dihydroxypyrimidin-4-yl)-2-(4-((4-(morpholinomethyl)phenyl)ethynyl)phenyl)propyl)azetidine-3-carbonitrile]
solubility ([1]; Capmul MCM, oil or lipid): 330 µg/mL (≈ 648 µM)
solubility ([1]; Cremophor RH40, aqueous with cosolvent or surfactant or cyclodextrin): 900 µg/mL (≈ 1770 µM)
solubility ([1]; HCl solution (pH 0.5), pH 0.5, simulated gastric fluid): ≥ 45000 µg/mL
solubility ([1]; Labrafil M 1944, oil or lipid): 120 µg/mL (≈ 235 µM)
solubility ([1]; Lactic acid, organic solvent or mixture): ≥ 20000 µg/mL
solubility ([1]; Maisine CC, oil or lipid): 130 µg/mL (≈ 255 µM)
solubility ([1]; Oleic acid, oil or lipid): 480 µg/mL (≈ 942 µM)
solubility ([1]; Peppermint oil, oil or lipid): 50 µg/mL (≈ 98.1 µM)
solubility ([1]; Polysorbate 20, aqueous with cosolvent or surfactant or cyclodextrin): 850 µg/mL (≈ 1670 µM)
solubility ([1]; Polysorbate 80, aqueous with cosolvent or surfactant or cyclodextrin): 620 µg/mL (≈ 1220 µM)
solubility ([1]; Propylene glycol (pH 0.5), pH 0.5, organic solvent or mixture): ≥ 45000 µg/mL
solubility ([1]; Propylene glycol, organic solvent or mixture): < 10000 µg/mL
solubility ([1]; SBEβCD (30% w/v), pH 0.5, pH 0.5, aqueous with cosolvent or surfactant or cyclodextrin): ≥ 45000 µg/mL
solubility ([1]; SBEβCD (30% w/v), pH 3, pH 3, aqueous with cosolvent or surfactant or cyclodextrin): < 10000 µg/mL
solubility ([1]; Solutol HS 15, aqueous with cosolvent or surfactant or cyclodextrin): 630 µg/mL (≈ 1240 µM)
solubility ([1]; Soybean oil, oil or lipid): 20 µg/mL (≈ 39.2 µM)
solubility ([1]; Transcutol (pH 0.5), pH 0.5, organic solvent or mixture): ≥ 10000 µg/mL
solubility ([1]; Transcutol, organic solvent or mixture): < 10000 µg/mL
solubility ([1]; Vitamin E TPGS, aqueous with cosolvent or surfactant or cyclodextrin): < 10000 µg/mL
solubility ([1]; aqueous with cosolvent or surfactant or cyclodextrin, Gelucire 44/14 (surfactant)): < 10000 µg/mL
solubility in excipients, overall ([1]; most excipients, acidifying the excipients led to higher solubility): Low solubility
solubility ([1]; organic solvent or mixture, PEG400 (co-solvent)): < 10000 µg/mL
MIC [2]: > 64 µg/mL
selectivity for gram-negative bacteria over gram-positive bacteria ([3]; from MIC panel of Table 1): high selectivity

MIC [2]: 8 µg/mL (≈ 22.1 µM)
SMILES: C[C@H]1COc2c(N3CCN(C)CC3)c(F)cc3c(=O)c(C(=O)O)cn1c23 [Levofloxacin]

SMILES: C[C@@H](O)[C@H]1C(=O)N2C(C(=O)O)=C(S[C@@H]3CN[C@H](C(=O)N(C)C)C3)[C@H](C)[C@H]12 [Meropenem, reference compound]
MIC [2]: > 1 µg/mL
activity against gram-positive bacteria ([3]; various strains of gram-positive bacteria): do have activity
